Assay results: patent publication US8765692B2, “Modified-galactosyl ceramides for staining and stimulating natural killer T cells” (The Scripps Research Institute, priority 2006, dated 2014)

Assays:
NKT cells [1] = experiment: CD1d tetramer staining of NKT cells in pigtail macaque blood samples; assay type: cell-based; settings: pigtail macaques
Text: (§1) To test whether PBS-57 could facilitate NKT cell binding in blood samples of both human and non-human primates, mouse and human CD1d tetramers were loaded with PBS-57 as described in Example 2. A majority of the human blood samples contained sufficient NKT cells (>0.08% of CD3-positive cells) to observe staining (14 out of 17 samples), while some samples may have contained too few NKT cells to allow detection of staining (Lee et al., 2002).

NKT cells [2] = experiment: CD1d tetramer staining of NKT cells in rhesus macaque blood samples; assay type: cell-based; settings: rhesus macaques, 12 samples
Text: as §1

Vα14i NKT cells = experiment: Staining of Vα14i NKT cells with glycolipid-loaded mouse CD1d tetramers (flow cytometry); assay type: cell-based; settings: summary statement, compared with KRN7000
Protocol: An typical means to isolate and quantify CD1 responsive NKT cells is through flow cytometry using fluorophore tagged CD1d tetramers loaded with sphingoglycolipids. To test for the ability of PBS-57 to facilitate CD1d tetramer staining, glycolipid-loaded CD1d tetramers were formed. Biotinylated mouse sCD1d molecules (in PBS) were mixed with PBS-57 or KRN7000 at a molar ratio of 1:3 (protein:lipid) and incubated overnight at room temperature. The following day, 80 μg of streptavidin-PE (Pharmagen) was added to 200 μg of the CD1-glycolipid mix and incubated at room temperature for 4 hours. Tetramers were stored at 4° C. until use.
Single cell suspensions of thymocytes and splenocytes were isolated from C57BL/6J mice (Jackson Laboratories, Bar Harbor, Me.) as known in the art. The TCR repertoire of the NKT cells was limited with an invariable Vα subunit (Vα14 in mice) and varied Vβ subunits. 10^6 cells were incubated with 200 μL staining media (2% BSA, 1% NaN3, 10 mM EDTA in PBS) with 2.4G2 (1:100; ATCC, Manassas, Va.) and Neutravidin (5 μg/200 μl; Molecular Probes, Eugene, Oreg.) for 20 minutes on ice. […] Cells were washed twice in staining media, fixed with 1% paraformaldehyde in PBS and analyzed by flow cytometry.

NKT cells [3] = experiment: CD1d tetramer staining of NKT cells in human blood samples; assay type: cell-based; settings: PBS-57 loaded mouse and human CD1d tetramers
Text: as §1

NKT cell hybridomas = experiment: Binding of PBS-57 loaded CD1d tetramers to NKT cell hybridomas expressing different Vβ; assay type: cell-based; settings: hybridomas with different Vβ TCR, 37° C. 4 hours, FIG. 4
Protocol: The TCR expressed on NKT cells are limited to a invariant Vα subunit, and a variable Vβ subunit that respond to glycolipid presentation by CD1d. To determine if PBS-57 loaded tetramers were Vβ subunit specific in their ability to bind, NKT cell hybridomas expressing different Vβ were tested for their ability to bind PBS-57 loaded CD1d tetramers.
For staining of NKT cell hybridomas, soluble CD1d (sCD1d) tetramers were loaded with PBS-57 or KRN7000 by the following procedure. Stock reagents of the following were prepared: sCD1d (1 mg/ml in phosphate buffer saline (PBS)); PBS-57 (1 mg/ml in DMSO); Tween 20 (0.5% in PBS); and streptavidin-APC (80 μg/mL in PBS). 10 μL sCD1d stock, 1 μL PBS-57 stock, and 10 μL Tween 20 stock were mixed, and 79 μL PBS was added to bring the volume up to 100 μL. […] To separate unbound glycolipid, the mixture was applied to a Microcon YM30 filter (Millipore) that has been previously wetted with PBS (400 μL). The loaded membrane was centrifuged until only ˜10 μL of solution remained. The volume was then increased to 100 μL by addition of PBS. The solution was agitated to aid in freeing the protein from the filter. The Microcon unit was inverted into a fresh Eppendorf tube and the contents were centrifuged into the tube. A 10 μL aliquot of the solution was removed and the streptavidin-APC solution (5 μL) was added. […]

NKT cells [4] = experiment: Cytokine release in vivo: serum INF-γ after intravenous injection; set-up: species or system mouse
Protocol: To examine if PBS-57 elicited an immune response in vivo, the ability of PBS-57 and KRN7000 to elicit an increase in cytokine levels in a mouse was assayed. 1 mg/ml stock solutions of PBS-57 and KRN7000 in DMSO were prepared. The PBS-57 and KRN7000 solutions were diluted with PBS to 1, 100, 10^4, and 10^6 pg/mL. 100 μL of each solution was injected intravenously into 6 week-old B6 mice. Serum samples were isolated from the mice at 24 hours, and the concentration of INF-γ was assayed by ELISA (BD Pharmingen).

[5] = system: NKT cells (B6 mouse splenocytes); experiment: Cytokine release in vitro from mouse splenocytes (IL-4 and IFNγ ELISA); assay type: cell-based; settings: for concentration at which cytokine responses plateau: 5×10^5 B6 splenocytes, IL-4 and IFNγ ELISA, FIG. 6
Protocol: To determine if PBS-57 stimulated cytokine release by NKT cells in vitro, 5×10^5 mouse splenocytes isolated from B6 mice were incubated in separate wells with 10^5, 10^4, 10^3, 100, 10 and 1 pg/mL of PBS-57 or KRN7000 in RPMI 1640 media supplemented with 10% FBS, 50 μM 2-mercaptoethanol, 2 mM glutamine and antibiotics. After 48 hours, IL-4 and IFNγ levels were measured by ELISA (BD Pharmingen).

NKT cells [6] = experiment: CD1d tetramer staining of NKT cells in sooty mangabey blood samples; assay type: cell-based; settings: sooty mangabeys
Text: as §1

Solubility in DMSO = assay type: physicochemical; settings: for solubility: 20 °C, organic solvent or mixture; for solubility (in words): relative to KRN7000 or fully saturated compounds
Protocol: As with most glycolipids, solubility issues are central to handling the compounds. Compounds are usually solubilized in DMSO, and then diluted to working concentrations in aqueous solutions. […] In suitable embodiments, the compounds of the invention are at least about 10 mg/mL in DMSO under ambient conditions (approximately 20° C.). In more suitable embodiments, the compounds of the invention are at least about 20 mg/mL in DMSO at ambient temperature. In further suitable embodiments, the compounds of the invention are at least 80%, at least two-fold, or at least 4-fold relative to the solubility of KRN7000 in DMSO at ambient temperature.

NKT cells [7] = experiment: CD1d tetramer staining of NKT cells in chimpanzee blood samples; assay type: cell-based; settings: PBS-57 loaded CD1d tetramers
Text: as §1

SMILES | NKT cell staining in blood samples (NKT cells [1]) | share of blood samples with significant NKT cell staining (NKT cells [2]) | staining of mouse and human NKT cells (summary) (Vα14i NKT cells) | blood samples with observable NKT cell staining (NKT cells [3]) | effect of Vβ subunit variation on binding of loaded CD1d tetramers (NKT cell hybridomas) | serum INF-γ concentration relative to KRN7000 (NKT cells [4]; B6 mice, intravenous, 100 μL of 1 to 10^6 pg/mL, serum at 24 hours, FIG. 7) | NKT cell stimulation in vivo relative to KRN7000 (NKT cells [4]; summary statement, in vivo) | concentration at which cytokine responses plateau ([5]; 48 hours) | Th1 and Th2 cytokine secretion ([5]; B6 splenocytes, 48 hours) | NKT cell stimulation in vitro relative to KRN7000 ([5]; summary statement, in vitro) | NKT cell staining in blood samples (NKT cells [6]) | solubility (Solubility in DMSO) [mg/mL] | solubility (Solubility in DMSO; molar value printed in parentheses) [mM] | solubility (in words) (Solubility in DMSO) | blood samples with significant NKT cell staining (NKT cells [7])
CCCCCCCCC=CCCCCCCCCCCCCCC(=O)N[C@@H](OC1OC(CNC(C)=O)C(O)C(O)C1O)C(O)[C@H](O)CCCCCCCCCCCCCC (stereo partly drawn) [PBS-57] | No staining | one quarter | as well as KRN7000 | 14 out of 17 | did not affect the binding | equal to or greater than KRN7000 | stimulates NKT cells more effectively than KRN7000 | approximately 100 pg/mL | able to induce both Th1 and Th2 cytokine secretion | stimulates NKT cells more effectively than KRN7000 | No staining | 20 | 22.4 | relatively high solubility | 6 out of 10
CCCCCCCCCCCCCCCCCCCCCCCCCC(=O)N[C@@H](CO[C@H]1O[C@H](CO)[C@H](O)[C@H](O)[C@H]1O)[C@H](O)[C@H](O)CCCCCCCCCCCCCC [KRN7000, reference compound] |  |  |  |  |  |  |  | ~1000 pg/mL |  |  |  | < 5 |  | relatively poor solubility in either aqueous or organic solvents | 
